pIC50: −log10 of the molar value.
Tests used:
topoisomerase II = molecular target: T1, topoisomerase II (Homo sapiens, UniProt P11388); experiment: kDNA decatenation assay (Topo II assay); format: biochemical; design: key: + (some inhibition); + (some inhibition) < ++ < +++; ++ < +++ < ++++; ++++ (complete inhibition); settings: kDNA substrate, 37° C. for 30 min, agarose gel
T1 construct: purchased TopoGEN, Inc
Description: The ability of compounds of the formulae (I) or (Ia) to inhibit the activity of topoisomerase II was examined with a kDNA decatenation assay (TopoGEN, Inc. Port Orange, Fla.). Substrate kDNA was mixed with compounds and incubated at 37° C. for 30 min. The reaction was stop by adding ⅕ volume of stop buffer. 20 μl of the reaction was loaded on 1% agarose gel. Image of decatenation of kDNA by compounds was taken by Kodak Image Station 440. Table 1 indicates the ability of compound 1 inhibiting the activity of topoisomerase II.

[1] = test system: K562 chronic myelogenous leukemia cells; experiment: Cell viability, Alamar Blue assay; settings: Homo sapiens, K562, 72 h, read-out: IC50 (cell viability)
Description: Human K562 chronic myelogenous leukemia cells (American Type Culture Collection) were grown in RPMI medium with 2 mM L-glutamine, antibiotics (100 IU/ml penicillin and 100 μg/ml streptomycin) and 10% fetal bovine serum (Sigma Aldrich). Cells were maintained at 37° C., 5% CO2 atmosphere and subcultured at 1×10^6 cells/mL.
Cell viability was measured using the Alamar Blue assay (Invitrogen). In brief, cells were plated in 96-well plates in triplicate at 2000 cells per well and incubated at 37° C., 5% CO2 atmosphere for 24 hr prior to the addition of drug or vehicle (0.3% DMSO) to the culture medium. After 72 hr, 10 μl/well Alamar Blue was added to the wells and incubated for an additional 3 hr at 37° C., 5% CO2 atmosphere. Fluorescence (560Ex/590Em nM) was measured with a SpectraMax microplate reader (Molecular Devices) and the resulting data were used to calculate cell viability, normalized to vehicle control.
After 72 hr exposure to drug, cell viability was measured and results were fit to a four parameter logistic model (XLFit, ID Business Solutions) shown in FIG. 1.

T1 sequence (P11388 whole entry): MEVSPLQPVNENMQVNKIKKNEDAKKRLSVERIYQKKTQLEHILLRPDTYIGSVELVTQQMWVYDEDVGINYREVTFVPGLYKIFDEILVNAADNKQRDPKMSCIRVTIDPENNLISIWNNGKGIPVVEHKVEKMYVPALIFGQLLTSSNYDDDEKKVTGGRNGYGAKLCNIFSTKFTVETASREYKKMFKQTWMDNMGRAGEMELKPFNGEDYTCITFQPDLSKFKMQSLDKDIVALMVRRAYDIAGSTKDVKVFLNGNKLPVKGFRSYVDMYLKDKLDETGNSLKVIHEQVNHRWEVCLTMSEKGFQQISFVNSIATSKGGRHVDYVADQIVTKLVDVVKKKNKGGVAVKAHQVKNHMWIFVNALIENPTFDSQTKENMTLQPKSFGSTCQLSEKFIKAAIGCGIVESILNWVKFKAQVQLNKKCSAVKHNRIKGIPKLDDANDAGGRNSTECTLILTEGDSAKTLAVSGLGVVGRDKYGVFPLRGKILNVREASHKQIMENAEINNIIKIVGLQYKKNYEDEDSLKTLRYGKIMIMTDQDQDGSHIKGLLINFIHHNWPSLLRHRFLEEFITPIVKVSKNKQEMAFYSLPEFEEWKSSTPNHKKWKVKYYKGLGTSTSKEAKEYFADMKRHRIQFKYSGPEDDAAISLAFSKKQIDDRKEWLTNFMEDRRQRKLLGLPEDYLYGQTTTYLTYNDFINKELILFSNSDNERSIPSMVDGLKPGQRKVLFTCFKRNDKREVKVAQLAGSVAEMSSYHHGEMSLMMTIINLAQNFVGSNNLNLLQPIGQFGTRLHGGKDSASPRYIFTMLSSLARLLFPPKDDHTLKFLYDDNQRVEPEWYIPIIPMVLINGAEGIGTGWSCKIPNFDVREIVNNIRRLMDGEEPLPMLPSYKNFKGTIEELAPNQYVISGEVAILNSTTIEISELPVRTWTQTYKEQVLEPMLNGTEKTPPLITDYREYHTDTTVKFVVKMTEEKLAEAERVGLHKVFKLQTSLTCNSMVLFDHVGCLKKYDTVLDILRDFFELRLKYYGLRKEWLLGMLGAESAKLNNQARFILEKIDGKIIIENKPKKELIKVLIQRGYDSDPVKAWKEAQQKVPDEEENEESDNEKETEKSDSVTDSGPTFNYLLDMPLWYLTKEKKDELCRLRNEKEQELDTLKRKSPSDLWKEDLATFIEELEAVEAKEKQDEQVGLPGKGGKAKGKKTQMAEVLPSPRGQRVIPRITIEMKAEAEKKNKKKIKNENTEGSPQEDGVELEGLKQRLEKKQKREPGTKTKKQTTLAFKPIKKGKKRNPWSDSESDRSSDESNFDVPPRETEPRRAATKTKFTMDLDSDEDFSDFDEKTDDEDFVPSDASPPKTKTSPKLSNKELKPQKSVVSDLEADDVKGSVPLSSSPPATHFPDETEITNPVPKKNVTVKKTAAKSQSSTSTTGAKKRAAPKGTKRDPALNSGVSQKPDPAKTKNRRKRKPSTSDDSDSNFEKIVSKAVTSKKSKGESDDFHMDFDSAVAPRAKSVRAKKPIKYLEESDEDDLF

Topo II assay (effectiveness at inhibition) (topoisomerase II)	pIC50 [1]	Structure (SMILES)
+	7.80	CC(C)c1cc(-c2nnc(O)n2-c2ccc3c(ccn3C)c2)c(O)cc1O [Compound 1, 3-(2,4-DIHYDROXY-5- ISOPROPYL-PHENYL)-4-(1- METHYL-INDOL-5-YL)-5- HYDROXY-[1,2,4] TRIAZOLE]
–	7.68	COc1cc([C@@H]2c3cc4c(cc3[C@@H](O[C@@H]3O[C@@H]5CO[C@@H](C)O[C@H]5[C@H](O)[C@H]3O)[C@H]3COC(=O)[C@H]23)OCO4)cc(OC)c1O [etoposide, reference compound]

Source: patent US20130171105A1, “CANCER THERAPY USING A COMBINATION OF A HSP90 INHIBITORY COMPOUND AND A TOPOISOMERASE II INHIBITOR” (SYNTA PHARMACEUTICALS CORP., priority 2010, published 2013)
